{"source": "patent US20240368351A1", "about": "“FACTORS CONTROLLING DRUG RELEASE IN CROSS-LINKED POLY(VALEROLACTONE) BASED MATRICES” (Pendant Biosciences, Inc., priority 2019, published 2024)", "key": {"[1]": {"assay": "Drug solubility in different release media (PBS with Tween 80 or SDS)", "type": "physicochemical", "conditions": "release media (PBS with Tween 80 or SDS), 37 °C, pH 7.4, aqueous with cosolvent or surfactant or cyclodextrin, thermodynamic from solid", "experimental": "Mikkelsen, L. M., Enzyme solubility in liquid detergent and use of detergent composition. […] Crotts, G.; Park, T. G. Protein delivery from poly(lactic-co-glycolic acid) biodegradable microspheres: Release kinetics and stability issues. […] FDA.\nThe solutions were centrifuged at 8000 rpm for 10 minutes, and a 1 ml aliquot was withdrawn, filtered through a 0.45 μm nylon membrane, and analyzed by HPLC."}, "[2]": {"assay": "logP (octanol-water partition) by shake tube method", "type": "physicochemical", "conditions": "read-out: Calculated LogP"}, "[3]": {"conditions": "pure PBS pH 7.4; cited from earlier work"}, "[4]": {"assay": "In vitro drug release from microparticles", "type": "physicochemical", "from_the_text": "There is no significant difference with Mesh, NaCl, and EtOH for release rate. Drug X loaded MPs show insufficient washing (high t=0) and burst release in a day.\nMethod: We will use a dialysis bag to properly change release media without loss of microparticle. This will prevent accumulation of Drug X degradation over time and allow more accurate release analysis. We will examine release with Drug X-loaded microparticle in different media (i.e. only PBS at pH 7.5).\n(§1) Method: Drug X-loaded microparticle in release media will be taken after 1 hrs and utilized to extract residue Drug X from microparticle."}, "[5]": {"conditions": "cited from earlier work"}, "[6]": {"assay": "Solubility of Drug X in organic solvents and water", "type": "physicochemical"}, "[7]": {"assay": "Extraction and recovery of Drug X from discs and microparticles (stability in polymer matrix)", "type": "physicochemical", "experimental": "In Table 53, a study was conducted in which a Drug X-loaded disc was placed in 10 mL of dichloromethane (DCM) for 8 hr at room temperature to extract Drug X, and DCM was removed using a rotary evaporator at 25° C. This extraction process was repeated two times. The extracted drug dissolved in a acetonitrile (ACN) was filtered using 0.45 μm a nylon membrane and measured by HPLC for extraction efficiency.\nas §1\nWe took out a disc after 2 weeks of release and freeze fried it. Then, the residual Drug X remaining in discs was extracted using dichloromethane to confirm Drug X stability in the disc."}, "blood plasma protein": {"system": "blood plasma protein", "conditions": "cited from earlier work"}, "[8]": {"system": "L929 mouse fibroblast cells", "quoted_text": "Cytotoxicity evaluation: CPs were incubated in culture media at a surface area to volume ratio of 1.25 cm^2/mL for 48 h. […] The L929 fibroblast cells were cultured and routinely maintained in Dulbecco's modified Eagle's medium (DMEM) supplemented with 10% fetal bovine serum (FBS) and 1% penicillin-streptomycin. The cells were grown in a monolayer in tissue culture flasks incubated at 37° C. and 5% CO2 at 90% relative humidity. Cells were counted and seeded in 96-well plates at a density of 2000 cells/well, which was determined to be the optimum cell density. After 24 h incubation, growth media was aspirated and replaced with either 150 μL CPs extracts at a surface area to volume ratio of 1.25 cm^2/mL or the same volume of extraction media that had been serially diluted to the above concentrations. Following 24, 48, and 72 h incubation periods, cell viability was evaluated using the MTS assay. Specifically, the extraction media was aspirated and replaced with 200 μL of fresh media followed by 20 μL of MTS reagent, and the cells were incubated at 37° C. for 1.5 h. Cell viability was measured by optical absorbance at 2=490 nm using a Cytation™ 5 Cell Imaging Multi-Mode Reader (BioTek, Vermont). […]\nThe cytotoxicities of the cross-linked matrices were evaluated in L929 mouse fibroblast cells using the extraction dilution method (FIG. 16)."}}, "data": [{"compound": "CC1(C)O[C@@H]2C[C@H]3[C@@H]4CCC5=CC(=O)C=C[C@]5(C)[C@@]4(F)[C@@H](O)C[C@]3(C)[C@]2(C(=O)CO)O1", "note": "[Triamcinolone acetonide, triamcinolone acetonide]", "values": [{"measurement": "solubility at 48 h", "setting": "[1]", "value": "287 ± 56.9", "unit": "µg/mL"}, {"measurement": "logP", "setting": "[2]", "value": 2.3}, {"measurement": "TAA solubility", "setting": "[3]", "value": 2.1, "unit": "µg/mL"}]}, {"compound": "CC(C)OC(=O)[C@H](C)N[P@](=O)(CO[C@H](C)Cn1cnc2c(N)ncnc21)Oc1ccccc1", "note": "[Drug X]", "values": [{"measurement": "time within which most of Drug X is released from MP", "setting": "[4]", "value": "≤ 1", "unit": "h"}, {"measurement": "Drug X remained inside the MP after extraction", "setting": "[4]; after 1 hr release", "value": "around 100 μg"}, {"measurement": "Log P", "setting": "[5]", "value": 1.6}, {"measurement": "Water solubility", "setting": "[5]", "value": "(4.86 mg/mL)"}, {"measurement": "Water solubility (words)", "setting": "[5]", "value": "Soluble in water"}, {"measurement": "pKa", "setting": "[5]", "value": 2.74}, {"measurement": "Solubility in EtOH/DMSO (50/50)", "setting": "[6]; 5 mg per 100 mL or μL", "value": "Soluble, and"}, {"measurement": "Solubility in DMSO/Water (50/50)", "setting": "[6]; 5 mg per 200 mL or μL", "value": "Insoluble"}, {"measurement": "Solubility in Water", "setting": "[6]; 5 mg per 200 mL or μL", "value": "Insoluble"}, {"measurement": "degradation (second HPLC peak) in release and extraction samples", "setting": "[7]; 1 hr time point, microparticles", "value": "no second peak detected"}, {"measurement": "Drug X recovered from the extraction", "setting": "[7]; after two-day release", "value": "~35", "unit": "%"}, {"measurement": "drug recovered from the discs (release & extraction)", "setting": "[7]; disc after 2 weeks of release, dichloromethane extraction", "value": "88-93%"}, {"measurement": "Drug X released", "setting": "[7]; during the two-day release", "value": "~50", "unit": "%"}, {"measurement": "extraction efficiency", "setting": "[7]; in the disc", "value": 85, "unit": "%"}, {"measurement": "total recovered of the encapsulated Drug X", "setting": "[7]; release plus extraction", "value": "83%-90%"}, {"measurement": "bound to blood plasma protein", "setting": "blood plasma protein", "value": 80, "unit": "%"}]}, {"compound": "high density polyethylene [HDPE]", "values": [{"measurement": "decrease in cell viability relative to the untreated control", "setting": "[8]", "value": "approximately 66%"}]}]}
